What was measured:
[1] = test system: myofibroblast (scar cell) formation; assay: TGFβ-induced myofibroblast formation (expression of αSMA, calponin and collagen); type: cell-based; details: hallmarks of myofibroblasts
From the text: Therapeutic options to treat excessive scarring are limited and most are not proven to be effective. Salinomycin is a novel small molecule that blocks myofibroblast (scar cell) formation.

[2] = test system: myofibroblast function (cellular contraction); type: cell-based
From the text: These novel studies highlight the potential of salinomycin to serve as the basis for new anti-scarring agents.

[3] = test system: human mesenchymal stem cells, human fibroblasts and fibroblasts from mouse, cat and pig; assay: cell culture studies of myofibroblast formation and function; type: cell-based
[4] = test system: peri-implant capsular scarring; assay: silicone discs impregnated with salinomycin placed submuscular in mice, Masson's trichrome staining; type: in vivo, mouse
From the text: Salinomycin can also be used effectively as a small molecule coating on silicone or temporary dressings such as PermeaDerm. […] In this study, silicone discs were impregnated with salinomycin or a control solvent and placed submuscular in mice. Surrounding tissue was harvested at 16 weeks and tissue sections were stained with Masson's trichrome.

[5] = rabbit study with cutaneous injection (toxicity, irritation, skin sensitization); type: in vivo
[6] = test system: Gram-positive bacteria, including MRSA, MRSE and Mycobacterium tuberculosis; details: cited from earlier work
fungi such as Candida = details: cited from earlier work
Gram-negative bacteria = details: cited from earlier work

## CC[C@@H](C(=O)[C@@H](C)[C@@H](O)[C@H](C)[C@@H]1O[C@@H]([C@@H](CC)C(=O)O)CC[C@@H]1C)[C@H]1O[C@]2(C=C[C@@H](O)[C@]3(CC[C@@](C)([C@H]4CC[C@](O)(CC)[C@H](C)O4)O3)O2)[C@H](C)C[C@@H]1C [Salinomycin]
[1]
  ability of TGFβ to induce expression of αSMA, calponin and collagen: potently blocks
[2]
  myofibroblast function (cellular contraction): effectively blocks
  viability: without affecting viability
[3]
  doses that block myofibroblast formation and function: 50 to 200 nM
[4]; silicone implants impregnated with 1 micromolar coating solution, mouse
  peri-implant capsular scarring: dramatically reduce
[4]; submuscular silicone discs in mice, tissue harvested at 16 weeks, Masson's trichrome
  scar formation (capsule thickness): significantly reduced scar formation
[5]; in vivo
  irritation: non-irritating
  reactivity (signs of erythema or edema): non-reactive
  skin sensitization: do not cause skin sensitization
[5]; low doses required for anti-scarring activity, cutaneous injection
  toxicity: non toxic
[6]
  antimicrobial activity against Gram-positive bacteria: high antimicrobial activity
Fungi such as Candida
  activity against fungi: inactive
Gram-negative bacteria
  activity against Gram-negative bacteria: inactive
